Assay results from patent US6022561A, “Bilayers preparations” (Scotia Lipidteknik AB, priority 1994, dated 2000).
Where a name gives a salt, the structure may show the parent alone.

Assays:
human whole blood = assay: Test 4. In vitro haemolysis test; assay type: cell-based; conditions: Li-GLA dissolved in 0.9% saline
Experimental: The samples were then incubated at 37° C. in an oxygen:carbon dioxide, 95:5, enriched atmosphere, 3 l/min, for 1 h, with constant gentle shaking. […] All samples were then spun for 2 min in an Eppendorf Microfuge (Brinkman Instruments Ltd, Canada) and finally analyzed on a centrifugal analyser (Cobas Bioanalyser; Hoffmann-La Roche Ltd, Canada) with UV scan of 540 nm.

haemolysis = assay: Haemolysis in vivo, preliminary studies; parameters: species or system rats
cancer cells = assay: Activity against cancer cells in vitro; assay type: cell-based

CCCCC/C=C\C/C=C\C/C=C\CCCCC(=O)O [Li-GLA, lithium salt of gammalinolenic acid]
Concentration causing 100% haemolysis (human whole blood): 4 to 5 mM | "Red urine" in rats (haemolysis): does | Activity against cancer cells in vitro, free vs liposomal Li-GLA (cancer cells): almost identical
